Where two headings read alike, the source gives them in different places.
How the values were obtained:
HEK 293 cells [1] = assay: Cell survival of HEK 293 cells after H2O2 stress treatment (MTT assay); assay type: cell-based, human; conditions: for viability at 5000 µM: Homo sapiens, read-out: Cell Survival (%); for protection of cell survival against H2O2 exposure (in words): 0.5 mM H2O2, 3 h
Protocol: For stress treatments, HEK 293 cells were grown to about 80% confluence. […] For testing the protective ability of other amino acids, cells were treated for 3 h with 0.5 mM H2O2 in the absence and presence of each amino acid (5 mM). Cells overexpressing PRODH, P5CS, and P5CR were incubated with H2O2 (0.5 mM) for 3 h at 37° C. after 24 h of transfection. Mild oxidative stress treatment was performed by treating HEK 293 cells with 20 μM H2O2 for 0-24 h at 37° C. […] Percent cell survival was estimated by counting live and dead cells using the 3-(4,5-dimethylthiazol-2-yl)-2,5-diphenyltetrazolium bromide (MTT) assay according to the recommendations of the manufacturer (Promega).

HEK 293 cells [2] = conditions: H2O2 1 mM, proline 5 mM; H2O2 alone 55%, no stress 6%
Protocol: Intracellular ROS levels in HEK 293 cells were evaluated before and after H2O2 treatment by incubating PBS washed cells for 10 min with dichlorodihydrofluorescein diacetate (DCHF-DA) (20 μM) (Molecular Probes).
Quantitative ROS measurements were performed using flow cytometry. After oxidative stress treatment as described above, cells (5×10^5) were washed with PBS and incubated with DCHF-DA (0.1 mM) for 15 min in the dark at room temperature. Cells were then washed twice with PBS to remove excess DCHF-DA and resuspended in PBS containing 10 mM EDTA. The cells were then analyzed using FACScan flow cytometry (Becton-Dickinson, San Jose, Calif.). The mean fluorescence channel of each sample was calculated using FACS-equipped […] ® software and is reported as the percent fluorescence observed in the live cell population. In each assay, matching cells not treated with DCHF-DA served as a control.

HEK 293 cells [3] = conditions: H2O2 1 mM for 3 and 6 h, 5 mM proline
Protocol: The cell pellets were resuspended in 0.4 ml of 100 mM Tris-HCl (pH 8.5) containing 0.2% SDS, 0.2 mg/ml proteinase K and 5 mM EDTA. The cells were then incubated at 37° C. for 16 h. NaCl was next added to the cell suspension at a final concentration of 1.5 M and the nuclear debris was removed by centrifugation at room temperature. The nucleic acids in the supernatant were then precipitated using established protocols. DNA samples were analyzed by non-denaturing agarose gel electrophoresis (1.5%) and visualized by ethidium bromide staining.

P5CR = P5CR (Homo sapiens, UniProt Q96C36); conditions: read-out: Km for P5CR activity; extracts of HEK 293 cells overexpressing P5CR, substrate P5C
Protocol: (§1) P5CS activity was measured in a reaction mixture of 50 mM Tris-HCl (pH 7.0), 0-50 mM glutamate, […], 10 mM ATP, and 0.2 mM NADPH and by monitoring the oxidation of NADPH at 340 nm. P5CR activity in the cell lysate was also determined by monitoring the oxidation of NADPH at 340 nm as described in Merrill, M. J., Yeh, G. C., and Phang, J. M. (1989) J. Biol. Chem. 264, 9352-9358, which reference is incorporated herein by reference in its entirety. Background rates for each of the above assays were determined from assays using lysates of HEK 293 cells transfected with the pcDNA3.1 vector alone. Km values for each enzyme activity were estimated by varying the concentration of the substrates and non-linear regression analysis of the initial velocity vs substrate concentration.

P5CS = P5CS (Homo sapiens, UniProt P54886); conditions: read-out: Km for P5CS activity; extracts of HEK 293 cells overexpressing P5CS, substrate glutamate
Protocol: as §1

[4] = substrate: O=C(O)[C@@H]1CCCN1; assay: cells, lysate or membranes named; conditions: other: extracts of HEK 293 cells overexpressing PRODH, substrate proline; pH 7.0
[5] = HEK293, 3 h, amino acid supplement 5 mM, 0.5 mM H2O2 for 3 h at 37° C., MTT, no supplement 39, control without H2O2 97
[6] = HEK293, amino acid supplement 5 mM, 0.5 mM H2O2 for 3 h at 37° C., MTT, no supplement 39, control without H2O2 97

Chain of P5CS (P54886 1-793 isoform P54886-2): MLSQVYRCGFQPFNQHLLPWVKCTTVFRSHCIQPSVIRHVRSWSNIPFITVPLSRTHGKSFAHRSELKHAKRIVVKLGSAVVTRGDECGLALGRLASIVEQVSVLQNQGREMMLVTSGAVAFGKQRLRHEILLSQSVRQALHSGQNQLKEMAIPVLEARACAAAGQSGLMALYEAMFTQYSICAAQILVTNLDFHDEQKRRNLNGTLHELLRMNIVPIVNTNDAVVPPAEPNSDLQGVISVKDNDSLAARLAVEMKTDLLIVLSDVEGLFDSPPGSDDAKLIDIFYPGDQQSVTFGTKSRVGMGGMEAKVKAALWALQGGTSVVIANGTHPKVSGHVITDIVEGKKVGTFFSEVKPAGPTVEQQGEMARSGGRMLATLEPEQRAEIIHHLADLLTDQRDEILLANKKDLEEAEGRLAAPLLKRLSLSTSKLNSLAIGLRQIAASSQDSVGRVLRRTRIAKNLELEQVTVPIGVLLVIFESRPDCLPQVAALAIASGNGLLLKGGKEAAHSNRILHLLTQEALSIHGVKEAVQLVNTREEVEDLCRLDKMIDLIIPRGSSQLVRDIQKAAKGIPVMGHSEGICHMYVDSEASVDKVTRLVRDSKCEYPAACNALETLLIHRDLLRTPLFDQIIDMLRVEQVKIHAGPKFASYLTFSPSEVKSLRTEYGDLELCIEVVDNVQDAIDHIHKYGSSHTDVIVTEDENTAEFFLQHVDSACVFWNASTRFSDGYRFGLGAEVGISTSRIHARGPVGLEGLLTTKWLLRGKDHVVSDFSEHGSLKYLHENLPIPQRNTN
Chain of P5CR (Q96C36 whole entry): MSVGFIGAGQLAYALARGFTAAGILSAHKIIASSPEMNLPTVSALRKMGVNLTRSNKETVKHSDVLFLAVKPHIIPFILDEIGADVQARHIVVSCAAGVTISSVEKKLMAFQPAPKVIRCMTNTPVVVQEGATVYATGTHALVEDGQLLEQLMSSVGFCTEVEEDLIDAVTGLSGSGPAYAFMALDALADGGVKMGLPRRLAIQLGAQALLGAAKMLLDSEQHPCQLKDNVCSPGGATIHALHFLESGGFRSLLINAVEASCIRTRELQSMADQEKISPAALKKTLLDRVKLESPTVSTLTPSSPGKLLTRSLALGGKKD

## O=C(O)[C@@H]1CCCN1 [proline]
HEK 293 cells [1]; [5]
  viability at 5000 µM: ~77%
HEK 293 cells [2]
  cell fluorescence levels (fluorescent positives, indicative of ROS): 10%
HEK 293 cells [3]
  DNA laddering induced by H2O2: lack of DNA laddering

## C[C@H](N)C(=O)O [alanine, reference compound]
HEK 293 cells [1]; [6]
  viability at 5000 µM: 48%

## CC(C)[C@H](N)C(=O)O [valine, reference compound]
HEK 293 cells [1]; [6]
  viability at 5000 µM: 44%

## N[C@@H](Cc1c[nH]c2ccccc12)C(=O)O [tryptophan]
HEK 293 cells [1]; HEK293, 3 h
  viability at 5000 µM: 66%
HEK 293 cells [1]; amino acid supplement 5 mM
  protection of cell survival against H2O2 exposure (in words): increase cell survival to almost the same level as proline

## N[C@@H](Cc1c[nH]cn1)C(=O)O [histidine]
HEK 293 cells [1]; [6]
  viability at 5000 µM: 58%
HEK 293 cells [1]; amino acid supplement 5 mM
  protection of cell survival against H2O2 exposure (in words): protection against H2O2 exposure

## NC(=O)CC[C@H](N)C(=O)O [glutamine, reference compound]
HEK 293 cells [1]; [6]
  viability at 5000 µM: 49%

## O=C(O)C1CCC=N1 (stereo not drawn) [P5C]
P5CR
  Km: 15 mM

## N[C@@H](CCC(=O)O)C(=O)O [glutamate, reference compound]
P5CS
  Km: ~20 mM
HEK 293 cells [1]; amino acid supplement 5 mM, 0.5 mM H2O2 for 3 h at 37° C., MTT, no supplement 39, control without H2O2 97
  Cell Survival (%): 35%

## N[C@@H](CC(=O)O)C(=O)O [aspartate, reference compound]
HEK 293 cells [1]; [6]
  viability at 5000 µM: 35%

## CSCC[C@H](N)C(=O)O [methionine]
HEK 293 cells [1]; [5]
  viability at 5000 µM: 57%
HEK 293 cells [1]; amino acid supplement 5 mM
  protection of cell survival against H2O2 exposure (in words): protection against H2O2 exposure

## NCCCC[C@H](N)C(=O)O [lysine]
HEK 293 cells [1]; HEK293, 3 h
  viability at 5000 µM: 54%

## CC(C)C[C@H](N)C(=O)O [leucine, reference compound]
HEK 293 cells [1]; [6]
  viability at 5000 µM: 43%

## N[C@@H](CO)C(=O)O [serine]
HEK 293 cells [1]; [6]
  viability at 5000 µM: 58%

## N[C@@H](Cc1ccc(O)cc1)C(=O)O [tyrosine, reference compound]
HEK 293 cells [1]; [6]
  viability at 5000 µM: 41%

## NCC(=O)O [glycine, reference compound]
HEK 293 cells [1]; [5]
  viability at 5000 µM: 33%

## N=C(N)NCCC[C@H](N)C(=O)O [arginine, reference compound]
HEK 293 cells [1]; HEK293, 3 h
  viability at 5000 µM: 50%

## CC[C@H](C)[C@H](N)C(=O)O [isoleucine, reference compound]
HEK 293 cells [1]; [6]
  viability at 5000 µM: 42%

## N[C@@H](CS)C(=O)O [cysteine]
HEK 293 cells [1]; HEK293, 3 h
  viability at 5000 µM: 68%
HEK 293 cells [1]; amino acid supplement 5 mM
  protection of cell survival against H2O2 exposure (in words): increase cell survival to almost the same level as proline

## NC(=O)C[C@H](N)C(=O)O [asparagine, reference compound]
HEK 293 cells [1]; [6]
  viability at 5000 µM: 48%

## C[C@@H](O)[C@H](N)C(=O)O [threonine]
HEK 293 cells [1]; [6]
  viability at 5000 µM: 59%
HEK 293 cells [1]; amino acid supplement 5 mM
  protection of cell survival against H2O2 exposure (in words): protection against H2O2 exposure

## N[C@@H](Cc1ccccc1)C(=O)O [phenylalanine]
HEK 293 cells [1]; [6]
  viability at 5000 µM: 51%

B1: PRODH (Homo sapiens) (protein)
chain: MALRRALPALRPCIPRFVPLSTAPASREQPAAGPAAVPGGGSATAVRPPVPAVDFGNAQEAYRSRRTWELARSLLVLRLCAWPALLARHEQLLYVSRKLLGQRLFNKLMKMTFYGHFVAGEDQESIQPLLRHYRAFGVSAILDYGVEEDLSPEEAEHKEMESCTSAAERDGSGTNKRDKQYQAHWAFGDRRNGVISARTYFYANEAKCDSHMETFLRCIEASGRVSDDGFIAIKLTALGRPQFLLQFSEVLAKWRCFFHQMAVEQGQAGLAAMDTKLEVAVLQESVAKLGIASRAEIEDWFTAETLGVSGTMDLLDWSSLIDSRTKLSKHLVVPNAQTGQLEPLLSRFTEEEELQMTRMLQRMDVLAKKATEMGVRLMVDAEQTYFQPAISRLTLEMQRKFNVEKPLIFNTYQCYLKDAYDNVTLDVELARREGWCFGAKLVRGAYLAQERARAAEIGYEDPINPTYEATNAMYHRCLDYVLEELKHNAKAKVMVASHNEDTVRFALRRMEELGLHPADHRVYFGQLLGMCDQISFPLGQAGYPVYKYVPYGPVMEVLPYLSRRALENSSLMKGTHRERQLLWLELLRRLRTGNLFHRPA
[4]
  Km: 14 ± 0.5 mM
